In US5717094A, “Process and intermediates for preparing compounds having a disubstituted acetylene moiety and retinoic acid-like biological activity” (Allergan, priority 1991, dated 1998):

What was measured:
[1] = tested on: ornithine decarboxylase (ODC), TPA induced; experiment: Inhibition of TPA-induced ornithine decarboxylase (ODC) activity, essentially the method of Verma & Boutwell; type: biochemical; settings: concentration attaining 80% inhibition of TPA induced ODC activity
Text: The retionic acid like activity of these compounds was confirmed through the classic measure of retionic acid activity involving the effects of retionic acid on ornithine decarboxylase. The original work on the correlation between retionic acid and decrease in cell proliferation was done by Verma & Boutwell, Cancer Research, 1977, 37, 2196-2201. That reference discloses that ornithine decarboxylase (ODC) activity increased precedent to polyamine biosynthesis. It has been established elsewhere that increases in polyamine synthesis can be correlated or associated with cellular proliferation. Thus, if ODC activity could be inhibited, cell hyperproliferation could be modulated. Although all causes for ODC activity increase are unknown, it is known that 12-0-tetradecanoylphorbol-13-acetate (TPA) induces ODC activity.
By way of example of retionic acid-like activity it is noted that in the assay conducted essentially in accordance with the method of Verman & Boutwell, ibid, the following examples of compounds made in accordance with the process of the present invention (Compounds 10, 11 and 12) attained an 80% inhibition of TPA induced ODC activity at the following concentrations (IC80): […]

[2] = tested on: ornithine decarboxylase (ODC), TPA induced; settings: background statement on retinoic acid; Verma & Boutwell, Cancer Research, 1977, 37, 2196-2201; cited from earlier work

Row | IC80 conc [1] [mmols] | SMILES | inhibition of induction of ODC activity by TPA [2]
1 | 0.69 | CCOC(=O)c1ccc(C#Cc2ccc3c(c2)C(C)(C)CC(C)(C)S3)nc1 [Compound 10] | –
2 | 0.13 | CCOC(=O)c1ccc(C#Cc2ccc3c(c2)C(C)(C)CC(C)(C)O3)nc1 [Compound 11] | –
3 | – | CC1=C(/C=C/C(C)=C/C=C/C(C)=C/C(=O)O)C(C)(C)CCC1 [Retionic acid, retionic acid] | inhibits this induction of ODC activity by TPA
4 | 0.2 | CCOC(=O)c1ccc(C#Cc2cc3c(cc2C)OC(C)(C)CC3(C)C)nc1 [Compound 12, Ethyl-6-[(2,2,4,4,7-pentamethyl-6-chromanyl)-ethynyl nicotinate] | –
